The values that follow come from EP2386565A2, “Compounds and methods to inhibit or augment an inflammatory response” (Cambridge Enterprise Ltd., priority 1999, dated 2000).

Each structure is given as a SMILES string. Positions of bridges follow the written chain, without caps; N, C: chain ends. Non-standard residues stand in square brackets, D forms with d. Residues, ends and D or L forms follow the SMILES beside them.

One assay deals with LPS-induced serum TNF-α. Briefly: Endotoxemia model (LPS i.p.). Format: in vivo, mice. How it is done:
A mouse endotoxemia model is used to screen agents of the invention for in vivo functional anti-inflammatory activity in a rapid manner. Female CD-1 mice are injected i.p. (ventral abdomen) with 583 µg LPS. mRNA and protein levels of TNF-α, IFN-γ, IL-4 and MCP-1 and other markers of the inflammatory response are then determined. Thirty minutes prior to LPS administration, the animals were administered one of three different doses of CRD-Leu4Ile11Cys13peptide 3(3-12)[MCP-1] as an intravenous loading dose and a subcutaneous bolus dose (on dorsum). PBS treated animals with and without LPS administration were positive and negative controls. Two hours later, animals were euthanized and serum collected. Serum was separated from the cell pellet and frozen until ELISA analysis of cytokine levels. Lung and liver samples were collected for mRNA analyses and histopathology. […] Serum levels and mRNA levels of IL-4, IFN-γ and MCP-1 are also determined.
Each animal received a pretreatment (200 ul) by sub-cutaneous injection into the scruff at the back of the neck. All pre-treatment agents were administered at 1 mg per animal (approximately 40-50 mg/kg). After 30-45 minutes, animals in groups 2 through 6 received 750 µg bacterial lipopolysaccharide (LPS) in 300 µl PBS by intraperitoneal injection. Animals in group 1 received PBS vehicle alone.
After 3 hours (2 hours post-LPS), all animals were sacrificed by terminal anaesthesia followed by cardiac puncture. Approximately 1 ml of blood was withdrawn and serum was prepared. Blood was allowed to clot at room temperature for approximately 2 hours, then the clot was spun out and the serum aliquoted and stored at -20°C until tested. Serum from each animal was assayed in duplicate for TNF-α using the Quantikine M kit (R&D Systems) calibrated by interpolation of the standard curve.

The subject of assay [1] is lung cells of normal mice. The assay is described as follows: Cell number and cell type in the lungs of normal mice. Format: in vivo. The method, then:
To determine whether increasing doses of CRD-Leu4Ile11Cys13 peptide 3(3-12)[MCP-1] alters the cell number and type of cell within the lungs of normal mice, mice were injected intravenously, intravenously and intratracheally, or intratracheally alone with CRD-Leu4Ile11Cys13 peptide 3(3-12)[MCP-1]. Mice were sacrificed at 20-24 hours post injection. Lungs were collected for isolation of cells, which were subsequently counted and characterized by surface staining for CD3, CD4, CD8, B220, and Mac-1.

The subject of assay [2] is T cell-dependent and T cell-independent antibody response. Briefly: Antibody response after immunization with sheep red blood cells. On the set-up: species or system mice. Particulars: mouse, in vivo.
For assay [3], the system named is MCP-1 binding to heparin-coated agarose beads. Briefly: Competition with 125I-MCP-1 for heparin-coated agarose beads. As to conditions: 10^-11 to 10^-4 M. From the text: Chemokines bind to glycosaminoglycans on the cell surface, which may facilitate chemokine receptor binding and subsequent signaling. […] This was followed by a monophasic displacement curve at concentrations of approximately 10^-7 to 10^-5 M MCP-1.

A further assay relates to focal ischemic lesion. The assay is described as follows: Intraluminal thread model of ischaemia reperfusion injury (MCAo 90 minutes). The assay is classed as in vivo, rats. How it is done: The intraluminal thread (ILT) model is representative of clinical ischaemia reperfusion injury, it gives a focal ischemic lesion and is widely used in the pharmaceutical industry to test candidate compounds for neuroprotective efficacy. Fed, male Sprague Dawley rats (Charles Rivers, approximately 330 g) were anaesthetized with 2% halothane in 70/30 % N2O/O2 and the left middle cerebral artery occluded (MCAo) for 90 minutes using the ILT approach. The MCAo is achieved by the placement of a 3/0 nylon suture into the internal carotid artery and advancing it approximately 18 mm from the carotid bifurcation such that its tip is positioned approximately 1 mm beyond the origin of the MCA. […]
Throughout the surgical period, rectal temperature was monitored and maintained at 37°C with a heated blanket and feedback rectal temperature probe and arterial blood gases were measured prior to and immediately post MCAo. […]
The ischemic damage was assessed by conventional magnetic resonance imaging (T2, diffusion and proton density sequences) on day 1, 2 and 3 post MCAo. […]
After the final MR analysis at 72 hour post ictus the rats were decapitated, the brains removed, stored fresh in cryo-protecting medium at -70°C prior to quantitative immunohistochemical analysis of infiltrating leukocytes (Figure 34). […]

Regarding `CC[C@@H](C)[C@H]1NC(=O)[C@@H](CCC(N)=O)NC(=O)[C@H](N)CSSC[C@H](C(N)=O)NC(=O)[C@@H](CC(C)C)NC(=O)[C@@H](CC(=O)O)NC(=O)[C@H]2CCCN2C(=O)[C@@H](CCCCN)NC(=O)[C@@H](CCC(N)=O)NC(=O)[C@@H](CCCCN)NC(=O)[C@@H](Cc2c[nH]c3ccccc23)NC1=O` (H-[dC][dQ][dI][dW][dK][dQ][dK][dP][dD][dL][dC]-NH2; disulfide 1-11), the “serum MCP-1 and liver MCP-1 RNA after LPS (in words)” value in the assay with LPS-induced serum TNF-α (mouse, in vivo) was “no modulation”. In addition, the “serum TNF-α after LPS (in words)” value with LPS-induced serum TNF-α (mouse, in vivo) is “dose-dependent inhibition”; in the assay on LPS-induced serum TNF-α (mouse, in vivo, listed as CRD-Leu4Ile11Cys13peptide 3(3-12)[MCP-1]), “dose dependent decrease”. Also, the “half-maximal dose for inhibition of LPS-stimulated TNF-α” value in the assay with LPS-induced serum TNF-α (s.c.) is “approximately 100 µg per animal”. For the same compound, the “percentages of CD3, CD4, and B220 cells in lung of normal mice (in words)” value in assay [1] (high dose, all routes of administration) is on record as “significantly reduced”. Moreover, the “total number of cells isolated from the lungs of normal mice (in words)” value in assay [1] (low dose (0.3 µg IV and/or 10 µg IT) compared to PBS) is “higher”. Moreover, the “T cell-dependent antibody response (in words)” value in assay [2] is recorded as “prevented”. The “displacement of MCP-1 from heparin-coated agarose beads (in words)” value in assay [3] is listed as “did not result in displacement”. In the assay on focal ischemic lesion (2 mg/kg bolus, then 0.5 mg/kg/hr i.v. for 72 hours, all time points, p < 0.0001), the “reduction in the mean infarct volume” value stood at 50%. Besides, the “neutrophil accumulation in the penumbra of the lesion (in words)” value in the assay with focal ischemic lesion (rat, in vivo) is recorded as “complete suppression”.
